{
  "source": "paper PMC11372076",
  "about": "“A dual inhibitor of PIP5K1C and PIKfyve prevents SARS-CoV-2 entry into cells” (Experimental & Molecular Medicine, 2024)",
  "test_system": "RPE1 cells",
  "assay": "PtdIns(4,5)P2 level by flow cytometry",
  "format": "cell-based",
  "settings": "overnight",
  "experimental": "CUGAUCAAGAU G A -3 and PIKfyve#2 siRNA 5'-\n[…] -3'. siRNA oligonucleotides were purchased from Genolution, Sigma- Aldrich and Integrated DNA Technologies.\nThese siRNAs were transfected into the cell using lipofectamine RNAiMAX (Invitrogen, 13778150) following manufacturer ’s protocol.\nRPE1 cells were treated with UNI418 at indicated concentration for over-night.\nAfter that, the image was taken by EVOS M5000 (Thermo Fisher Scientific).\nRPE1 cells were treated with UNI418 at the different concentration during the time. Live cell images were taken by Lionheart LX Automated Microscope and analyzed in Gen5 (Agilent).\nRPE1 cells were treated with indicated doses of UNI418 overnight. To analyze PIP2 level by flow cytometry, trypsinized cells were fixed with 4% paraformaldehyde for 10 min at room temperature. […] Cells were washed three times with 1% BSA-PBS and incubated with the fluorescence- conjugated secondary antibody Alexa Fluor® 488 AffiniPure Goat Anti-Mouse IgG (H+L) (Jackson ImmunoResearch,111- 545- 003) for 1h at room temperature analyzed by BD Accuri C6 Plus flow cytometer (BD Biosciences). […]\nPtdIns(4,5)P2 level was analyzed by flow cytometry. […] Significance was determined by Student’s t-test, **p < 0.01. b Representative flow cytometry graph for PIP2 level after indicated dose of […]",
  "data": [
    {"molecule": "c1ccc(-c2cc(Nc3nc(-c4ccncc4)nc4ccccc34)n[nH]2)cc1", "note": "[UNI418, N -(5-phenyl-1 H -pyrazol-3-yl)-2-(4-pyridinyl)-4-quinazolinamine]", "values": [
      {"measurement": "levels of PtdIns(4,5)P2", "value": "reduced"}
    ]}
  ]
}
